Drawing on the NIST ThermoML archive (doi:10.1021/je060001s), this text covers mass density and refractive index for four compounds.

± gives the expanded uncertainty stated by the source.

The conditions of data set [1]: 298.15 K; 101.33 kPa; Liquid.
The nature of data set [2]: refractive index (Na D-line) (dimensionless). As to conditions: 298.15 K; 101.33 kPa; Liquid; Standard Abbe refractometry.

For `CC#N` [acetonitrile], in data set [1], the mass density is listed as 776.62 ± 0.52 kg/m3. The refractive index in data set [2] stood at 1.3418 ± 0.0004.
For `CCCC(=O)OC` [methyl butanoate], the mass density in data set [1] is recorded as 892.16 ± 0.37 kg/m3. Besides, the refractive index in data set [2] was 1.3847 ± 0.0004.
Regarding `CCCCCC(=O)OC` [methyl hexanoate], the mass density in data set [1] stood at 879.47 ± 0.39 kg/m3. The refractive index in data set [2] is 1.4048 ± 0.0004.
Consider `CCCCC(=O)OC` [methyl pentanoate], for which, in data set [1], the mass density is on record as 884.8 ± 0.38 kg/m3. Moreover, the refractive index in data set [2] amounted to 1.3971 ± 0.0004.

As usually defined, the mass density is the mass of a sample divided by its volume. For orientation: refractive index means the speed of light in vacuum divided by its phase velocity in the sample.
